Source: patent US8802678B2, “Carbonylated (aza) cyclohexanes as dopamine D3 receptor ligands” (Bioprojet, priority 2006, dated 2014)

Row | SMILES | melting point [°C]
1 | N#CCC(=O)N[C@H]1CC[C@H](CCN2CCN(c3cc(C(F)(F)F)c(Cl)cc3Cl)CC2)CC1 [Example 423, 2-Cyano-N-(4-{2-[4-(2,4-dichloro-5-trifluoromethylphenyl)piperazin-1-yl]ethyl}cyclohexyl)acetamide] | 193
2 | CCc1cccc(N2CCN(CC[C@H]3CC[C@H](NC(=O)CS(C)(=O)=O)CC3)CC2)c1 [Example 425, N-(4-{2-[4-(3-Ethylphenyl)-piperazin-1-yl]ethyl}cyclohexyl)-2-methanesulfonylacetamide] | 185
3 | CS(=O)(=O)CC(=O)N[C@H]1CC[C@H](CCN2CCN(c3ccc(Cl)cc3)CC2)CC1 [Example 427, N-(4-{2-[4-(4-Chlorophenyl)-piperazin-1-yl]ethyl}cyclohexyl)-2-methanesulfonylacetamide] | 214
4 | Cc1ccccc1N1CCN(CC[C@H]2CC[C@H](NC(=O)CCCC#N)CC2)CC1 [Example 428, 4-Cyano-N-{4-[2-(4-o-tolylpiperazin-1-yl)ethyl]cyclohexyl}butanamide] | 160
5 | Cc1cccc(N2CCN(CC[C@H]3CC[C@H](NC(=O)CCCC#N)CC3)CC2)c1C [Example 429, 4-Cyano-N-(4-{2-[4-(2,3-dimethylphenyl)piperazin-1-yl]ethyl}cyclohexyl)butanamide] | 162
6 | O=C(N[C@H]1CC[C@H](CCN2CCN(c3ccc(F)cc3)CC2)CC1)C1=CCCC1 [Example 431, Cyclopent-1-enecarboxylic acid (4-{2-[4-(4-fluorophenyl)-piperazin-1-yl]ethyl}cyclohexyl) amide] | 227
7 | N#CCCCC(=O)N[C@H]1CC[C@H](CCN2CCN(c3cc(C#N)cc(C(F)(F)F)c3)CC2)CC1 [Example 432, 4-Cyano-N-(4-{2-[4-(3-cyano-5-trifluoromethylphenyl)piperazin-1-yl]ethyl}cyclohexyl)butanamide] | 174
8 | Cc1cc(Cl)cc(N2CCN(CC[C@H]3CC[C@H](NC(=O)CC#N)CC3)CC2)c1 [Example 437, N-(4-{2-[4-(3-Chloro-5-methylphenyl)piperazin-1-yl]ethyl}cyclohexyl)-2-cyanoacetamide] | 185
9 | Cc1cc(Cl)cc(N2CCN(CC[C@H]3CC[C@H](NC(=O)CCCC#N)CC3)CC2)c1 [Example 438, N-(4-{2-[4-(3-Chloro-5-methylphenyl)piperazin-1-yl]ethyl}cyclohexyl)-4-cyanobutanamide] | 165
10 | Cc1ccc(F)c(N2CCN(CC[C@H]3CC[C@H](NC(=O)CCCC#N)CC3)CC2)c1 [Example 440, 4-Cyano-N-(4-{2-[4-(2-fluoro-5-methylphenyl)piperazin-1-yl]ethyl}cyclohexyl)butanamide] | 156
11 | O=C(N[C@H]1CC[C@H](CCN2CCN(c3cccc(C(F)(F)F)c3F)CC2)CC1)C(F)F [Example 443, 2,2-Difluoro-N-(4-{2-[4-(2-fluoro-3-trifluoromethylphenyl)piperazin-1-yl]ethyl}cyclohexyl)acetamide] | 156
12 | N#CCCCC(=O)N[C@H]1CC[C@H](CCN2CCN(c3cccc(F)c3F)CC2)CC1 [Example 445, 4-Cyano-N-(4-{2-[4-(2,3-difluorophenyl)piperazin-1-yl]ethyl}cyclohexyl)butanamide] | 197
13 | O=C(CC(F)(F)F)N[C@H]1CC[C@H](CCN2CCN(c3cccc(F)c3F)CC2)CC1 [Example 446, N-(4-{2-[4-(2,3-Difluorophenyl)piperazin-1-yl]ethyl}cyclohexyl)-3,3,3-trifluoropropanamide] | 220
14 | O=C(N[C@H]1CC[C@H](CCN2CCN(c3cccc(F)c3F)CC2)CC1)C1=CCCC1 [Example 447, Cyclopent-1-enecarboxylic acid (4-{2-[4-(2,3-difluorophenyl)-piperazin-1-yl]ethyl}cyclohexyl) amide] | 225
15 | N#CCCCC(=O)N[C@H]1CC[C@H](CCN2CCN(c3cccc(C#N)c3)CC2)CC1 [Example 448, 4-Cyano-N-(4-{2-[4-(3-cyanophenyl)piperazin-1-yl]ethyl}cyclohexyl)butanamide] | 184
16 | N#CCC(=O)N[C@H]1CC[C@H](CCN2CCN(c3ccc(F)c(F)c3F)CC2)CC1 [Example 450, 2-Cyano-N-(4-{2-[4-(2,3,4-trifluorophenyl)piperazin-1-yl]ethyl}cyclohexyl)acetamide] | 207
17 | N#CCCCC(=O)N[C@H]1CC[C@H](CCN2CCN(c3ccc(F)c(F)c3F)CC2)CC1 [Example 451, 4-Cyano-N-(4-{2-[4-(2,3,4-trifluorophenyl)piperazin-1-yl]ethyl}cyclohexyl)butanamide] | 178
18 | CS(=O)(=O)c1cccc(N2CCN(CC[C@H]3CC[C@H](NC(=O)CC(F)(F)F)CC3)CC2)c1 [Example 452, 3,3,3-Trifluoro-N-(4-{2-[4-(3-methanesulfonylphenyl)piperazin-1-yl]ethyl}cyclohexyl)-propanamide] | 173
19 | N#CCC(=O)N[C@H]1CC[C@H](CCN2CCN(c3cccc4c3CCC4)CC2)CC1 [Example 456, 2-Cyano-N-{4-[2-(4-indan-4-ylpiperazin-1-yl)ethyl]cyclohexyl}acetamide] | 175

Continued, values first:

Row | melting point [°C] | SMILES
20 | 188 | N#CCCCC(=O)N[C@H]1CC[C@H](CCN2CCN(c3cc(C(F)(F)F)c(Cl)cc3Cl)CC2)CC1 [Example 424, 4-Cyano-N-(4-{2-[4-(2,4-dichloro-5-trifluoromethylphenyl)piperazin-1-yl]ethyl}cyclohexyl)butanamide]
21 | 214 | CS(=O)(=O)CC(=O)N[C@H]1CC[C@H](CCN2CCN(c3cccc(F)c3F)CC2)CC1 [Example 426, N-(4-{2-[4-(2,3-Difluorophenyl)-piperazin-1-yl]ethyl}cyclohexyl)-2-methanesulfonylacetamide]
22 | 149 | N#CCCCC(=O)N[C@H]1CC[C@H](CCN2CCN(c3ccc(F)c(C(F)(F)F)c3)CC2)CC1 [Example 430, 4-Cyano-N-(4-{2-[4-(4-fluoro-3-trifluoromethylphenyl)piperazin-1-yl]ethyl}cyclohexyl)butanamide]
23 | 137 | CCOc1ccccc1N1CCN(CC[C@H]2CC[C@H](NC(=O)CCCC#N)CC2)CC1 [Example 439, 4-Cyano-N-(4-{2-[4-(2-ethoxyphenyl)piperazin-1-yl]ethyl}cyclohexyl)butanamide]
24 | 209 | O=C(N[C@H]1CC[C@H](CCN2CCN(c3cc(F)ccc3F)CC2)CC1)C1=CCCC1 [Example 441, Cyclopent-1-enecarboxylic acid (4-{2-[4-(2,5-difluorophenyl)-piperazin-1-yl]ethyl}cyclohexyl) amide]
25 | 159 | N#CCCCC(=O)N[C@H]1CC[C@H](CCN2CCN(c3cc(F)ccc3F)CC2)CC1 [Example 442, 4-Cyano-N-(4-{2-[4-(2,5-difluorophenyl)piperazin-1-yl]ethyl}cyclohexyl)butanamide]
26 | 118 | COc1c(Cl)cccc1N1CCN(CC[C@H]2CC[C@H](NC(=O)CCCC#N)CC2)CC1 [Example 449, N-(4-{2-[4-(3-Chloro-2-methoxyphenyl)piperazin-1-yl]ethyl}cyclohexyl)-4-cyanobutanamide]
27 | 157 | N#CCCCC(=O)N[C@H]1CC[C@H](CCN2CCN(c3cccc4c3CCC4)CC2)CC1 [Example 457, 4-Cyano-N-{4-[2-(4-indan-4-ylpiperazin-1-yl)ethyl]cyclohexyl}butanamide]
